# Experimental data: ChEMBL document CHEMBL1201862, “PubChem BioAssay data set” (2004)
#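 Assay format: 96-well plates, 48-hour exposure. GI50: concentration for 50% inhibition of growth.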 Activity calls are given as the source filed them. Rule as the data show it: active = GI50 up to about 1.1 µM and inactive = higher.
# What was measured:
# Assay in all cases: inhibition of tumour cell growth, NCI panel, 48 h
# [1] = tested on: SK-MEL-2
# [2] = tested on: SK-MEL-5
# [3] = tested on: ACHN
# [4] = tested on: CCRF-CEM
# [5] = tested on: SF-268
# [6] = tested on: NCI-H23
# [7] = tested on: SK-MEL-28
# [8] = tested on: OVCAR-5
# [9] = tested on: IGROV-1
# [10] = tested on: Malme-3M
# [11] = tested on: HCT-116
# [12] = tested on: K562
# [13] = tested on: RPMI-8226
# [14] = tested on: SF-295
# [15] = tested on: NCI-H226
# [16] = tested on: SNB-75
# [17] = tested on: HCT-15
# [18] = tested on: NCI-H460
# [19] = tested on: MOLT-4
# [20] = tested on: LOX IMVI
SMILES,GI50 [1],GI50 [2],GI50 [3],GI50 [4],GI50 [5],GI50 [6],GI50 [7],GI50 [8],GI50 [9],GI50 [10],GI50 [11],GI50 [12],GI50 [13],GI50 [14],GI50 [15],GI50 [16],GI50 [17] [µM],GI50 [18],GI50 [19],GI50 [20]
C=CC(=O)N1C/C(=C\c2ccc(OC)cc2)C(=O)/C(=C/c2ccc(OC)cc2)C1,2.68 µM (inactive),2.61 µM (inactive),1.78 µM (inactive),1.78 µM (inactive),3.51 µM (inactive),2.01 µM (inactive),2.81 µM (inactive),4.9 µM (inactive),2.35 µM (inactive),2.19 µM (inactive),0.219 µM (active),2.86 µM (inactive),0.247 µM (active),2.39 µM (inactive),2 µM (inactive),6.05 µM (inactive),1.56,1.9 µM (inactive),1.76 µM (inactive),0.986 µM (active)
Nc1nc(O)c2[nH]cnc2[n+]1[O-],> 100 µM (inactive),> 100 µM (inactive),> 100 µM (inactive),> 100 µM (inactive),> 100 µM (inactive),> 100 µM (inactive),> 100 µM (inactive),> 100 µM (inactive),> 100 µM (inactive),> 100 µM (inactive),> 100 µM (inactive),> 100 µM (inactive),> 100 µM (inactive),> 100 µM (inactive),> 100 µM (inactive),> 100 µM (inactive),> 100,> 100 µM (inactive),> 100 µM (inactive),> 100 µM (inactive)
CC1(Br)S(=O)(=O)OCCOS1(=O)=O,> 100 µM (inactive),> 100 µM (inactive),> 100 µM (inactive),> 100 µM (inactive),> 100 µM (inactive),> 100 µM (inactive),> 100 µM (inactive),> 100 µM (inactive),> 100 µM (inactive),> 100 µM (inactive),> 100 µM (inactive),> 100 µM (inactive),> 100 µM (inactive),> 100 µM (inactive),> 100 µM (inactive),> 100 µM (inactive),> 100,> 100 µM (inactive),> 100 µM (inactive),> 100 µM (inactive)
NC(=O)OCC(COc1ccc(Cl)cc1)OC(=O)c1cc([N+](=O)[O-])cc([N+](=O)[O-])c1 (stereo not given),71.6 µM (inactive),> 100 µM (inactive),> 100 µM (inactive),97.3 µM (inactive),> 100 µM (inactive),> 100 µM (inactive),> 100 µM (inactive),> 100 µM (inactive),> 100 µM (inactive),> 100 µM (inactive),35.8 µM (inactive),37.2 µM (inactive),> 100 µM (inactive),> 100 µM (inactive),> 100 µM (inactive),> 100 µM (inactive),33.5,40.6 µM (inactive),> 100 µM (inactive),17.9 µM (inactive)
ON(Cc1ccccc1)C(=S)c1ccccc1,2.62 µM (inactive),4.47 µM (inactive),4.21 µM (inactive),0.342 µM (active),3.32 µM (inactive),3.62 µM (inactive),11.4 µM (inactive),17.9 µM (inactive),5.86 µM (inactive),25.4 µM (inactive),3.4 µM (inactive),3.27 µM (inactive),2.77 µM (inactive),3.42 µM (inactive),20.1 µM (inactive),19 µM (inactive),2.6,1.93 µM (inactive),1.09 µM (active),2.24 µM (inactive)
O=c1cc(O)c1=O,> 100 µM (inactive),> 100 µM (inactive),> 100 µM (inactive),> 100 µM (inactive),61.2 µM (inactive),> 100 µM (inactive),> 100 µM (inactive),> 100 µM (inactive),> 100 µM (inactive),> 100 µM (inactive),> 100 µM (inactive),> 100 µM (inactive),> 100 µM (inactive),> 100 µM (inactive),> 100 µM (inactive),> 100 µM (inactive),> 100,> 100 µM (inactive),> 100 µM (inactive),> 100 µM (inactive)
O=c1cccc(Cl)[nH]1,> 100 µM (inactive),27 µM (inactive),> 100 µM (inactive),> 100 µM (inactive),> 100 µM (inactive),> 100 µM (inactive),> 100 µM (inactive),> 100 µM (inactive),> 100 µM (inactive),> 100 µM (inactive),> 100 µM (inactive),> 100 µM (inactive),> 100 µM (inactive),> 100 µM (inactive),> 100 µM (inactive),> 100 µM (inactive),> 100,> 100 µM (inactive),> 100 µM (inactive),> 100 µM (inactive)
CCNC(=O)COc1ccc(Cl)c(C)c1,> 100 µM (inactive),> 100 µM (inactive),> 100 µM (inactive),> 100 µM (inactive),> 100 µM (inactive),> 100 µM (inactive),> 100 µM (inactive),> 100 µM (inactive),> 100 µM (inactive),> 100 µM (inactive),> 100 µM (inactive),> 100 µM (inactive),> 100 µM (inactive),> 100 µM (inactive),> 100 µM (inactive),86.1 µM (inactive),> 100,> 100 µM (inactive),> 100 µM (inactive),> 100 µM (inactive)
Cn1ncc2ccc3[nH]c4ccccc4c(=O)c3c21,33.1 µM (inactive),17.5 µM (inactive),22.6 µM (inactive),38.3 µM (inactive),28.4 µM (inactive),20.6 µM (inactive),36.3 µM (inactive),33.6 µM (inactive),39.9 µM (inactive),30.1 µM (inactive),24.9 µM (inactive),31.6 µM (inactive),22.5 µM (inactive),34.8 µM (inactive),11.6 µM (inactive),19.9 µM (inactive),22.9,28.7 µM (inactive),28.9 µM (inactive),18.7 µM (inactive)
COc1cc(C(C)c2cc3c(cc2OCCOCCOc2cc4c(cc2C(C)c2cc(OC)c(OC)c(OC)c2)OCO4)OCO3)cc(OC)c1OC (stereo not given),> 10 µM (inactive),89.1 µM (inactive),> 10 µM (inactive),> 10 µM (inactive),> 10 µM (inactive),> 10 µM (inactive),> 10 µM (inactive),> 10 µM (inactive),> 10 µM (inactive),> 10 µM (inactive),> 10 µM (inactive),36.1 µM (inactive),> 100 µM (inactive),46.7 µM (inactive),> 10 µM (inactive),19.1 µM (inactive),> 10,> 10 µM (inactive),> 10 µM (inactive),> 10 µM (inactive)
CCOC(=O)C1(C#N)C(c2ccccc2)CC(O)(c2ccc(OC)cc2)C(C(=O)c2ccc(OC)cc2)C1c1ccccc1 (stereo not given),> 100 µM (inactive),> 100 µM (inactive),> 100 µM (inactive),> 100 µM (inactive),> 100 µM (inactive),> 100 µM (inactive),> 100 µM (inactive),> 100 µM (inactive),> 100 µM (inactive),> 100 µM (inactive),> 100 µM (inactive),> 100 µM (inactive),> 100 µM (inactive),> 100 µM (inactive),> 100 µM (inactive),27.7 µM (inactive),> 100,> 100 µM (inactive),> 100 µM (inactive),> 100 µM (inactive)
Brc1cc(CCOC2CCCCO2)c(-c2sccc2CCOC2CCCCO2)s1 (stereo not given),27.4 µM (inactive),26.9 µM (inactive),50.8 µM (inactive),19.9 µM (inactive),53.6 µM (inactive),34.7 µM (inactive),> 95.1 µM (inactive),> 100 µM (inactive),53.2 µM (inactive),24.9 µM (inactive),23.2 µM (inactive),13.8 µM (inactive),23.9 µM (inactive),18.7 µM (inactive),> 100 µM (inactive),43.5 µM (inactive),33.3,33.4 µM (inactive),22.2 µM (inactive),26.3 µM (inactive)
O=C(Cc1ccccc1)N/N=C(/c1nc2ccc([N+](=O)[O-])cc2nc1O)C(O)c1ccccc1Cl (stereo not given),> 100 µM (inactive),41.4 µM (inactive),56.6 µM (inactive),> 100 µM (inactive),> 100 µM (inactive),> 100 µM (inactive),> 100 µM (inactive),> 100 µM (inactive),> 100 µM (inactive),> 100 µM (inactive),> 100 µM (inactive),> 100 µM (inactive),> 100 µM (inactive),> 100 µM (inactive),> 100 µM (inactive),> 100 µM (inactive),40.6,> 100 µM (inactive),70 µM (inactive),> 100 µM (inactive)
CC(C)C1=C(O)C(=O)C2=C(C1=O)C(OC=O)C(O)C1C(C)(C)CCCC21C (stereo not given),12.1 µM (inactive),3.7 µM (inactive),3.87 µM (inactive),3.27 µM (inactive),10.5 µM (inactive),7 µM (inactive),3.13 µM (inactive),15.8 µM (inactive),10.3 µM (inactive),7.08 µM (inactive),7.73 µM (inactive),6.35 µM (inactive),2.66 µM (inactive),14.2 µM (inactive),5.08 µM (inactive),10.8 µM (inactive),4.04,3.22 µM (inactive),2.25 µM (inactive),3.33 µM (inactive)
